Test results taken from US11938120B1 (priority 2023, dated 2024).
≈ marks a conversion by molar mass, not a printed value.

How the values were obtained:
[1] = test system: Mycobacterium tuberculosis H37Rv (ATCC 25177); test: Anti-tubercular activity, colorimetric Resazurin Microplate Assay (REMA), susceptible strain; format: cell-based; conditions: 192 h, Middlebrook 7H9 broth, 37° C., 8 days of incubation then resazurin overnight, read-out: MIC (μg/mL) Susceptible (H37Rv)

SMILES	melting point	MIC [1]
CCOC(=O)c1cc(C(=O)c2ccc(C)cc2)n2c1ccc1cc(C)ccc12	155 to 156 °C	–
CCOC(=O)c1cc(C(=O)c2ccccc2)n2c1ccc1cc(C)ccc12	139 to 140 °C	–
CCOC(=O)c1cc(C(=O)c2ccc(Br)cc2)n2c1ccc1cc(C)ccc12 [Compound 4e, Ethyl 1-(4-bromobenzoyl)-7-methylpyrrolo[1,2-a]quinoline-3-carboxylate]	180 to 181 °C	32 µg/mL (≈ 73.3 µM)
CCOC(=O)c1cc(C(=O)c2ccccc2[N+](=O)[O-])n2c1ccc1cc(C)ccc12 [Compound 4d, Ethyl 7-methyl-1-(2-nitrobenzoyl)pyrrolo[1,2-a]quinoline-3-carboxylate]	174 to 175 °C	8 µg/mL (≈ 19.9 µM)
CCOC(=O)c1cc(C(=O)c2cc(C(F)(F)F)cc(C(F)(F)F)c2)n2c1ccc1cc(C)ccc12 [Compound 4f, Ethyl 1-(3,5-bis(trifluoromethyl)benzoyl)-7-methylpyrrolo[1,2-a]quinoline-3-carboxylate]	223 to 224 °C	16 µg/mL (≈ 32.4 µM)
CCOC(=O)c1cc(C(=O)c2ccc(F)cc2)n2c1ccc1cc(C)ccc12	163 to 164 °C	–
